Experimental data published in BindingDB's records for doi:10.1021/acs.jmedchem.6b01385 (Medical University of South Carolina, 2016).

Biological target: Histone deacetylase 3 (Homo sapiens, UniProt O15379)
Experiment: Allosteric inhibition of C-terminal His-tagged recombinant human HDAC3 expressed in Sf9 cells pre-incubated for 2 hrs before acetylated lysine-aminomethyl coumarin-BOC addition and measured after 2 hrs by fluorescence based assay

Chain of Histone deacetylase 3 (O15379 whole entry): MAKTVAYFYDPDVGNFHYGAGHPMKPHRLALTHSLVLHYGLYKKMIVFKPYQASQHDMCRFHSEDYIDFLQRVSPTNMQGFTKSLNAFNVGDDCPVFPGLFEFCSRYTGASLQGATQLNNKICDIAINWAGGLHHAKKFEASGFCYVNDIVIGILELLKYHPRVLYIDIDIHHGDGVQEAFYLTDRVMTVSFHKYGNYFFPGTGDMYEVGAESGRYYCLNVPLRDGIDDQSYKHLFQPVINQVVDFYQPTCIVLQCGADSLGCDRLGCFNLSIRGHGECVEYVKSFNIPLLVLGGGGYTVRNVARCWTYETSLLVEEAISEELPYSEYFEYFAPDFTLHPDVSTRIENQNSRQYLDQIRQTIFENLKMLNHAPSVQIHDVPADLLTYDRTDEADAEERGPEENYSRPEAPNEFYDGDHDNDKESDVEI

IC50: > 10 µM
SMILES: CCCCCCCCCCNNC(=O)c1ccc(CNC(=O)c2ccccc2)cc1 [N-(4-(2-decylhydrazine-1-carbonyl)benzyl)benzamide]
